Measurements from PMC10281575, “PfCRT mutations conferring piperaquine resistance in falciparum malaria shape the kinetics of quinoline drug binding and transport” (PLOS Pathogens, 2023).
Where “and” joins values, the source holds several entries; their conditions need not be identical. Equal entries are not always repeated.

Molecular target: T1, PfCRT^Dd2_F145I (Plasmodium falciparum, UniProt Q8IBZ9, A220S/F145I/I356T/K76T/M74I/N326S/N75E/Q271E/R371I)
T1 construct: expressed in transfected cells; host or cells: Xenopus laevis oocytes injected with in vitro transcribed RNA (pSP64T)
T1 sequence (Q8IBZ9 1-424 M74I/N75E/K76T/F145I/A220S/Q271E/N326S/I356T/R371I): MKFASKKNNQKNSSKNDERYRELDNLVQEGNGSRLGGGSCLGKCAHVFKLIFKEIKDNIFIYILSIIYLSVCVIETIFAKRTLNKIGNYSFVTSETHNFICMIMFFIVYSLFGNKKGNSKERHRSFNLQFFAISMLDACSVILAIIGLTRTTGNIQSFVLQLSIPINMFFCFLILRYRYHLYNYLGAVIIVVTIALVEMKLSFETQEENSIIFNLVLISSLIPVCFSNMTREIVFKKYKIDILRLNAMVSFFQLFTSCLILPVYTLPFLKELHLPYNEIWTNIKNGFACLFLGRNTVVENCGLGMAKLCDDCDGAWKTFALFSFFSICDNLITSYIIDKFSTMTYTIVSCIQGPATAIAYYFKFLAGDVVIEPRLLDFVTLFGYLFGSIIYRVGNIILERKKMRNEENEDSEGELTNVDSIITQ
Test: Competition kinetics of drug transport (radiolabeled substrate plus cold inhibitor), PfCRT^Dd2_F145I-expressing oocytes
Type: cell-based
Description: To further characterize the kinetic relationship between CQ and PPQ, we performed a series of competition reactions. To this end, water-injected oocytes and PfCRT-expressing oocytes were incubated in medium containing one of seven concentrations of radio-labeled CQ and one of six concentrations of cold PPQ for 60 min before the amount of radio-labeled CQ uptake was determined. The rate of PfCRT-mediated CQ uptake was calculated for each condition by subtracting the corresponding value obtained for water-injected oocytes from those of PfCRT-expressing oocytes. The results were analyzed as a function of the CQ concentration (Fig 4A) and 16 different models of substrate competition were globally fit to the data by the least-squares method, using Python. The models were ranked, according to their Akaike information criterion difference (ΔAICC) and their Akaike weight (Fig 4B), with the most plausible model being the one with the lowest AICC (ΔAICC = 0) and the highest Akaike weight.
A complementary set of experiments was undertaken to investigate the kinetic mechanism by which PfCRT^Dd2_F145I accepts CQ and PPQ (Fig 6). […] These included a global fit of the substrate competition data to the 16 kinetic models (Fig 6), analysis of the secondary plots (Vmax,app and Vmax,app/KM,app as a function of the inhibitor concentration) (Fig 7A), a fractional velocity plot analysis (Fig 7B) and a comparison of the experimental data with the modelled data using the noncompetitive inhibition equation (Fig 7C to 7F). […] The fractional velocity plot illustrated the partial character of the noncompetitive inhibition mechanism by yielding a partiality factor β^CQ = 0.31 ± 0.04, by which PPQ reduces the transport velocity of CQ (Fig 7B). […] A 3D model of the kinetics between PfCRT^Dd2_F145I, CQ and PPQ, and analyses of the residuals as a function of substrate and inhibitor concentrations confirmed that the model was also an appropriate explanation for the mutant transporter (Fig 7C to 7F).
Drug transport assays were performed as previously described. Briefly, measurements of radiolabeled drug uptake were made over 1 h, unless otherwise specified. […] Where specified, one or more unlabeled drugs were also present at the indicated concentrations. The direction of drug transport in the assays is from the extracellular medium (pH 6) into the oocyte cytosol (pH 7.2), which corresponds to the efflux of CQ or PPQ from the acidic digestive vacuole (pH 5.2) into the parasite cytosol (pH 7.2). The uptake assays were terminated by removing the oocytes from the reaction medium and washing them three times with 2 mL of ice-cold ND96 buffer. Each oocyte was transferred to a separate scintillation vial and lysed by the addition of 200 μL of a 5% SDS solution. The radioactivity in the sample was measured using a liquid scintillation analyser Tri-Carb 4910 TR (PerkinElmer). Water-injected oocytes were analyzed in parallel as a negative control. The buffer from each condition was measured in duplicate in parallel to each experiment to transform counts per minute into pmol of drug. Drug uptake attributable to PfCRT was determined by subtracting the background uptake from water-injected oocytes from that of PfCRT-expressing oocytes. In all cases, at least three independent experiments were performed on oocytes from different frogs, and for each condition in an experiment, measurements were made from 10 oocytes per treatment.
The following equations were adopted from Segel (1993), and the reader is referred to that text for the assumptions made in the author’s approach in the derivation of each equation [31]. The concentration of substrate is denoted as [S1] and the concentration of the inhibiting substrate is denoted as [S2]. KS1 and KS2 are the dissociation constants for the respective substrate-protein complexes.
Analyses of the kinetic data were performed using SigmaPlot version 13.0 and Python. […]

Structure (SMILES): CCN(CC)CCCC(C)Nc1ccnc2cc(Cl)ccc12 (stereo not shown) [CQ, chloroquine]
- PfCRTDd2_F145I-mediated CQ transport (10 µM CQ, 50 µM PPQ): 0.59 pmol oocyte-1 h-1 and 0.39 pmol oocyte-1 h-1
- PfCRTDd2_F145I-mediated CQ transport (10 µM CQ, 125 µM PPQ): 0.68 pmol oocyte-1 h-1 and 0.58 pmol oocyte-1 h-1 and 0.47 pmol oocyte-1 h-1
- PfCRTDd2_F145I-mediated CQ transport (10 µM CQ, 200 µM PPQ): 0.27 pmol oocyte-1 h-1 and 0.32 pmol oocyte-1 h-1 and 0.33 pmol oocyte-1 h-1
- PfCRTDd2_F145I-mediated CQ transport (10 µM CQ, 350 µM PPQ): 0.43 pmol oocyte-1 h-1 and 0.31 pmol oocyte-1 h-1 and 0.46 pmol oocyte-1 h-1
- PfCRTDd2_F145I-mediated CQ transport (50 µM CQ, 0 µM PPQ): 3.80 pmol oocyte-1 h-1 and 4.28 pmol oocyte-1 h-1 and 2.84 pmol oocyte-1 h-1
- PfCRTDd2_F145I-mediated CQ transport (50 µM CQ, 50 µM PPQ): 3.24 pmol oocyte-1 h-1 and 2.4 pmol oocyte-1 h-1 and 3.22 pmol oocyte-1 h-1
- PfCRTDd2_F145I-mediated CQ transport (50 µM CQ, 125 µM PPQ): 3.47 pmol oocyte-1 h-1 and 2.37 pmol oocyte-1 h-1 and 2.11 pmol oocyte-1 h-1
- PfCRTDd2_F145I-mediated CQ transport (50 µM CQ, 200 µM PPQ): 2.85 pmol oocyte-1 h-1 and 2.54 pmol oocyte-1 h-1 and 2.07 pmol oocyte-1 h-1
- PfCRTDd2_F145I-mediated CQ transport (50 µM CQ, 350 µM PPQ): 1.72 pmol oocyte-1 h-1 and 1.78 pmol oocyte-1 h-1 and 2.56 pmol oocyte-1 h-1
- PfCRTDd2_F145I-mediated CQ transport (50 µM CQ, 500 µM PPQ): 1.90 pmol oocyte-1 h-1 and 2.40 pmol oocyte-1 h-1
- PfCRTDd2_F145I-mediated CQ transport (100 µM CQ, 0 µM PPQ): 5.25 pmol oocyte-1 h-1 and 7.33 pmol oocyte-1 h-1 and 8.14 pmol oocyte-1 h-1
- PfCRTDd2_F145I-mediated CQ transport (100 µM CQ, 125 µM PPQ): 4.86 pmol oocyte-1 h-1 and 5.68 pmol oocyte-1 h-1 and 5.61 pmol oocyte-1 h-1
- PfCRTDd2_F145I-mediated CQ transport (100 µM CQ, 200 µM PPQ): 4.12 pmol oocyte-1 h-1 and 4.69 pmol oocyte-1 h-1 and 4.23 pmol oocyte-1 h-1
- PfCRTDd2_F145I-mediated CQ transport (100 µM CQ, 350 µM PPQ): 3.37 pmol oocyte-1 h-1 and 4.27 pmol oocyte-1 h-1 and 5.15 pmol oocyte-1 h-1
- PfCRTDd2_F145I-mediated CQ transport (200 µM CQ, 0 µM PPQ): 12.53 pmol oocyte-1 h-1 and 12.79 pmol oocyte-1 h-1
- PfCRTDd2_F145I-mediated CQ transport (200 µM CQ, 50 µM PPQ): 14.25 pmol oocyte-1 h-1 and 10 pmol oocyte-1 h-1 and 10.59 pmol oocyte-1 h-1
- PfCRTDd2_F145I-mediated CQ transport (200 µM CQ, 125 µM PPQ): 10.11 pmol oocyte-1 h-1 and 9.30 pmol oocyte-1 h-1 and 9.95 pmol oocyte-1 h-1
- PfCRTDd2_F145I-mediated CQ transport (200 µM CQ, 200 µM PPQ): 7.48 pmol oocyte-1 h-1 and 7.15 pmol oocyte-1 h-1 and 10.15 pmol oocyte-1 h-1
- PfCRTDd2_F145I-mediated CQ transport (200 µM CQ, 350 µM PPQ): 6.25 pmol oocyte-1 h-1 and 7.4 pmol oocyte-1 h-1 and 8.42 pmol oocyte-1 h-1
- PfCRTDd2_F145I-mediated CQ transport (200 µM CQ, 500 µM PPQ): 7.88 pmol oocyte-1 h-1 and 6.35 pmol oocyte-1 h-1
- PfCRTDd2_F145I-mediated CQ transport (300 µM CQ, 0 µM PPQ): 13.73 pmol oocyte-1 h-1 and 19.15 pmol oocyte-1 h-1
- PfCRTDd2_F145I-mediated CQ transport (300 µM CQ, 50 µM PPQ): 13.84 pmol oocyte-1 h-1 and 14.19 pmol oocyte-1 h-1 and 16.04 pmol oocyte-1 h-1
- PfCRTDd2_F145I-mediated CQ transport (300 µM CQ, 125 µM PPQ): 11.05 pmol oocyte-1 h-1 and 9.73 pmol oocyte-1 h-1 and 15.82 pmol oocyte-1 h-1
- PfCRTDd2_F145I-mediated CQ transport (300 µM CQ, 200 µM PPQ): 10.02 pmol oocyte-1 h-1 and 12.63 pmol oocyte-1 h-1 and 9.83 pmol oocyte-1 h-1
- PfCRTDd2_F145I-mediated CQ transport (300 µM CQ, 350 µM PPQ): 9.31 pmol oocyte-1 h-1 and 9.21 pmol oocyte-1 h-1 and 10.66 pmol oocyte-1 h-1
- PfCRTDd2_F145I-mediated CQ transport (300 µM CQ, 500 µM PPQ): 9.09 pmol oocyte-1 h-1 and 11.47 pmol oocyte-1 h-1
- PfCRTDd2_F145I-mediated CQ transport (400 µM CQ, 0 µM PPQ): 14.23 pmol oocyte-1 h-1 and 18.19 pmol oocyte-1 h-1
- PfCRTDd2_F145I-mediated CQ transport (400 µM CQ, 50 µM PPQ): 15.01 pmol oocyte-1 h-1 and 14.7 pmol oocyte-1 h-1 and 18.28 pmol oocyte-1 h-1
- PfCRTDd2_F145I-mediated CQ transport (400 µM CQ, 125 µM PPQ): 14.33 pmol oocyte-1 h-1 and 12.62 pmol oocyte-1 h-1 and 13.88 pmol oocyte-1 h-1
- PfCRTDd2_F145I-mediated CQ transport (400 µM CQ, 200 µM PPQ): 9.98 pmol oocyte-1 h-1 and 13.36 pmol oocyte-1 h-1 and 12.15 pmol oocyte-1 h-1
- PfCRTDd2_F145I-mediated CQ transport (400 µM CQ, 350 µM PPQ): 7.72 pmol oocyte-1 h-1 and 13.35 pmol oocyte-1 h-1 and 10.83 pmol oocyte-1 h-1
- PfCRTDd2_F145I-mediated CQ transport (500 µM CQ, 0 µM PPQ): 19.16 pmol oocyte-1 h-1 and 17.86 pmol oocyte-1 h-1
- PfCRTDd2_F145I-mediated CQ transport (500 µM CQ, 50 µM PPQ): 16.43 pmol oocyte-1 h-1 and 15.64 pmol oocyte-1 h-1 and 17.36 pmol oocyte-1 h-1
- PfCRTDd2_F145I-mediated CQ transport (500 µM CQ, 125 µM PPQ): 14.97 pmol oocyte-1 h-1 and 16.69 pmol oocyte-1 h-1 and 12.9 pmol oocyte-1 h-1
